US20240000736A1, “INHIBITION OF PROTEIN AMYLOID AGGREGATION USING FLUORINATED BENZENESULFONAMIDES” (Vilnius University, priority 2022, published 2024)

Structure (SMILES)	melting point [°C]
NS(=O)(=O)c1c(F)c(F)c(SCc2ccc(C(=O)O)cc2)c(F)c1NCC1CCCCCCC1 [MZ21-23, 4-[[3-(Cyclooctylmethylamino)-2,5,6-trifluoro-4-sulfamoyl-phenyl]sulfanylmethyl]benzoic acid]	157 to 158
NS(=O)(=O)c1c(F)c(F)c(Sc2ccccc2C(=O)O)c(F)c1NC1CCCCCCCCCCC1 [MZ22-10, 2-[3-(Cyclododecylamino)-2,5,6-trifluoro-4-sulfamoyl-phenyl]sulfanylbenzoic acid]	85
CCCCCCCCNc1c(F)c(SCCc2ccc(C(=O)O)cc2)c(F)c(F)c1S(N)(=O)=O [MZ20-07, 4-[2-[2,3,6-Trifluoro-5-(octylamino)-4-sulfamoyl-phenyl]sulfanylethyl]benzoic acid]	69 to 71
CCCC(CCC)CCNc1c(F)c(SCc2ccc(C(=O)O)cc2)c(F)c(F)c1S(N)(=O)=O [MZ21-35, 4-[[2,3,6-Trifluoro-5-(3-propylhexylamino)-4-sulfamoyl-phenyl]sulfanylmethyl]benzoic acid]	149
CCCCCCCCCNc1c(F)c(SCCc2ccc(C(=O)O)cc2)c(F)c(F)c1S(N)(=O)=O [MZ21-12, 4-[2-[2,3,6-Trifluoro-5-(nonylamino)-4-sulfamoyl-phenyl]sulfanylethyl]benzoic acid]	66 to 67
CCCCCCNc1c(F)c(SCCc2ccc(C(=O)O)cc2)c(F)c(F)c1S(N)(=O)=O [MZ21-06, 4-[2-[2,3,6-Trifluoro-5-(hexylamino)-4-sulfamoyl-phenyl]sulfanylethyl]benzoic acid]	110 to 112
CCCCCCCNc1c(F)c(SCCc2ccc(C(=O)O)cc2)c(F)c(F)c1S(N)(=O)=O [MZ21-11, 4-[2-[2,3,6-Trifluoro-5-(heptylamino)-4-sulfamoyl-phenyl]sulfanylethyl]benzoic acid]	66 to 68
CCC(C)C(C)CCNc1c(F)c(SCc2ccc(C(=O)O)cc2)c(F)c(F)c1S(N)(=O)=O (stereo not drawn) [MZ21-40, 4-[[3-(3,4-Dimethylhexylamino)-2,5,6-trifluoro-4-sulfamoyl-phenyl]sulfanylmethyl]benzoic acid]	133

Next, values leading:

melting point [°C]	Structure (SMILES)
186 to 188	NS(=O)(=O)c1c(F)c(F)c(Sc2ccc(C(=O)O)cc2)c(F)c1NC1CCCCCCCCCCC1 [MZ21-02, 4-[3-(Cyclododecylamino)-2,5,6-trifluoro-4-sulfamoyl-phenyl]sulfanylbenzoic acid]
190 to 191	NS(=O)(=O)c1c(F)c(F)c(SCc2ccc(C(=O)O)cc2)c(F)c1NC1CCCCCCCCCCC1 [MZ21-10, 4-[[3-(Cyclododecylamino)-2,5,6-trifluoro-4-sulfamoyl-phenyl]sulfanylmethyl]benzoic acid]
166 to 168	NS(=O)(=O)c1c(F)c(F)c(SCCc2ccc(C(=O)O)cc2)c(F)c1NC1CCCCCCC1 [VR16-10, 4-[2-[3-(Cyclooctylamino)-2,5,6-trifluoro-4-sulfamoyl-phenyl]sulfanylethyl]benzoic acid]
176	NS(=O)(=O)c1c(F)c(F)c(SCc2ccc(C(=O)O)cc2)c(F)c1NC1CCCCCCCCC1 [MZ21-25, 4-[[3-(Cyclodecylamino)-2,5,6-trifluoro-4-sulfamoyl-phenyl]sulfanylmethyl]benzoic acid]
109 to 111	NS(=O)(=O)c1c(F)c(F)c(SCc2cccc(C(=O)O)c2)c(F)c1NC1CCCCCCCCCCC1 [MZ21-26, 3-[[3-(Cyclododecylamino)-2,5,6-trifluoro-4-sulfamoyl-phenyl]sulfanylmethyl]benzoic acid]
123 to 125	NS(=O)(=O)c1c(F)c(F)c(Sc2cccc(C(=O)O)c2)c(F)c1NC1CCCCCCCCCCC1 [MZ22-07, 3-[3-(Cyclododecylamino)-2,5,6-trifluoro-4-sulfamoyl-phenyl]sulfanylbenzoic acid]
148 to 150	NS(=O)(=O)c1c(F)c(F)c(Sc2ccc(CC(=O)O)cc2)c(F)c1NC1CCCCCCCCCCC1 [MZ21-18, 2-[4-(3-(Cyclododecylamino)-2,5,6-trifluoro-4-sulfamoylphenyl)sulfanylphenyl]acetic acid]
